Results reported in US10751378B2, “Pharmaceutical composition comprising Pistacia weinmannifolia extract, fraction of same or compound separated from same for preventing or treating chronic obstructive pulmonary disease (COPD)” (Korea Research Institute of Bioscience and Biotechnology, priority 2014, dated 2020).

How the values were obtained:
MUC5AC = assay: Inhibition of MUC5AC protein production induced by TNF-α (immunoassay of supernatant); format: cell-based; details: TNF-α 20 ng/mL; for inhibition at 0.125 µM / inhibition at 0.25 µM / inhibition at 0.5 µM / inhibition at 1 µM: read-out: Inhibition Rate (%) of MUC5AC production
Excerpt: To analyze the effects of the Pistacia weinmannifolia extract, a fraction thereof, and a compound isolated therefrom, prepared and extracted in Example 1, on the prevention and treatment of inflammatory diseases such as COPD, the inhibitory effect of the Pistacia weinmannifolia extract, a fraction thereof, and a compound isolated therefrom against the secretion of a related protein, MUC5AC. In this regard, to confirm the inhibitory effect of the samples in Examples on the production of MUC5AC protein, experiments were performed using the method described in the reference (Sikder, M A. et al., Phytotherapy research: PTR. 28, 62-8, 2014).
The supernatant, which was recovered for the immunoassay of the produced MUC5AC, was aliquoted into a 96 well-plate in an amount of 50 μL and dried in a homeostat set at 50° C. The resultant was washed with PBS containing 1% BSA, reacted with MUC5AC antibody (ab3649, abcam) at room temperature for one hour, and aliquoted with the secondary antibody and reacted for one hour. The resultant was rewashed, reacted with 3,3′,5,5′-tetramethylbenzidine peroxide solution (54827-17-7, Sigma-Aldrich) for 20 minutes, and the reaction was stopped with a sulfuric acid solution and the coloration was measured at 450 nm using a microplate reader (VERSAmax microplate reader, SMP500-14915, Molecular Devices, USA).

H292 cells = assay: Cytotoxicity test: H292 cell viability (CCK-8); format: cell-based, human; details: 24 hours, negative control (0.2% DMSO) = 100%
Description: To confirm the cytotoxicity of a Pistacia weinmannifolia extract, a fraction thereof, and a compound isolated therefrom, which were prepared and extracted in Example 1, experiments were performed by applying the method described in the existing references (Ishiyama et al., Talanta, 44, pp. 1299-1305, 1997; Tominaga et al., Anal. Commun., 36, pp. 47-50, 1999).
H292 (CRL-1848) was purchased from the American Type Culture Collection (ATCC). The H292 cells were cultured in RPMI medium (SH30027.01, RPMI 1640, Gibco) containing 10% fetal bovine serum and antibiotics, and cultured in the condition of humidified 5% CO2 atmosphere at 37° C. TNF-α was purchase from a company (300-01A, Peprotech, USA) and used.
The cells in a medium (GM) were placed in a 96-well plate at a density of (1×10^3 cells/well). After 24 hours, the cells were cultured along with a sample for one day. The cell viability rate was read via trivalues according to the manufacturer's manual using the Cell Counting Kit-8 (CK04-01, Dojindo Molecular Technologies, ML). The absorbance was measured using the VERSAmax microplate reader (SMP500-14915, Molecular Devices, USA) and the measured absorbance was converted into a cell number via a standard curve.
H292 cells, human mucosa cells of lung cancer, were suspended in RPMI medium (Gibco) containing 10% fetal bovine serum in a concentration of 5×10^4 cells/mL, inoculated to a 96 well-plate in an amount of 100 μL per each well, and allowed to be attached thereto for 12 hours. Six active fractions of Pistacia and 3 single compounds (PW11, PW12, and PW13) were treated according to concentrations, and cultured for 24 hours. As explained in the cell counting CCK-8 kit (Dojindo Molecular Technologies, ML), the CCK-8 solution (10 μL) was mixed with the medium (90 μL). The mixture (100 μL) was added to each well, reacted for the minimum 30 minutes to the maximum 4 hours, and the absorbance was measured at 570 nm. The cell viability was calculated according to Equation 1 above with reference to the negative control, which was treated with DMSO in a concentration of 0.2%, set at 100%. Cell Viability (%)=[value at OD 570 nm after treatment with an extract/value at OD 570 nm (negative control)]×100 [Equation 1]

Row | SMILES | Amount of MUC5AC Secretion (Relative % to TNF-α Treated Group) (MUC5AC; Conc. 0.125 μM) [%] | inhibition at 0.125 µM (MUC5AC; Conc. 0.125 μM) [%] | Amount of MUC5AC Secretion (Relative % to TNF-α Treated Group) (MUC5AC; Conc. 0.25 μM) [%] | inhibition at 0.25 µM (MUC5AC; Conc. 0.25 μM) [%] | Amount of MUC5AC Secretion (Relative % to TNF-α Treated Group) (MUC5AC; Conc. 0.5 μM) [%] | inhibition at 0.5 µM (MUC5AC; Conc. 0.5 μM) [%] | Amount of MUC5AC Secretion (Relative % to TNF-α Treated Group) (MUC5AC; Conc. 1 μM) [%] | inhibition at 1 µM (MUC5AC; Conc. 1 μM) [%] | H292 Cell Viability Rate (%, Mean ± SD) (H292 cells; 0.125 μM) [%] | H292 Cell Viability Rate (%, Mean ± SD) (H292 cells; 0.25 μM) [%] | H292 Cell Viability Rate (%, Mean ± SD) (H292 cells; 0.5 μM) [%] | H292 Cell Viability Rate (%, Mean ± SD) (H292 cells; 1 μM) [%]
1 | O=C(/C=C/c1ccc(Oc2ccc(/C=C/C(=O)c3ccc(O)cc3O)cc2O)cc1)c1ccc(O)cc1O [Compound PW12] | 75.77 ± 7.66 | 24.2 | 74.23 ± 12.98 | 25.8 | 69.50 ± 5.37 | 30.5 | 69.74 ± 8.56 | 30.3 | 95.80 ± 2.90 | 96.47 ± 3.21 | 104.50 ± 1.32 | 115.88 ± 0.50
2 | O=C(/C=C/c1ccc(Oc2ccc([C@@H]3[C@@H](C(=O)c4ccc(O)cc4O)[C@H](C(=O)c4ccc(O)cc4O)[C@H]3c3ccc(O)cc3)cc2O)cc1)c1ccc(O)cc1O [Compound PW13, di-(2,4-dihydroxybenzoyl)-(3,4-dihydroxyphenyl)-(4-hydroxyphenyl)-cyclobutane-3-O-4′-bichalcone] | 83.92 ± 9.77 | 16.1 | 82.39 ± 3.10 | 17.6 | 77.30 ± 2.33 | 22.7 | 73.76 ± 2.68 | 26.2 | 104.80 ± 2.34 | 103.53 ± 3.07 | 126.28 ± 7.75 | 71.92 ± 5.47
